Test results: ChEMBL document CHEMBL1201862, “PubChem BioAssay data set” (2004)
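Grown in 96-well plates, cells were treated for 48 hours with each compound at five concentrations. Insufficient inhibition: endpoint recorded as highest concentration tested. GI50 = concentration required for 50% inhibition of growth.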 The source made the active and inactive calls. Cut-off read from the data, not from the text of the source: active = GI50 up to about 1.1 µM and inactive = higher.

Columns and labels:
Test in all cases: NCI-60 cell line screen, 48 h
UACC-257 = tested on: UACC-257
HCT-15 = tested on: HCT-15
SF-268 = tested on: SF-268
SNB-19 = tested on: SNB-19
HOP-62 = tested on: HOP-62
RXF 393 = tested on: RXF 393
RPMI-8226 = tested on: RPMI-8226
HCC 2998 = tested on: HCC 2998
OVCAR-8 = tested on: OVCAR-8
SF-295 = tested on: SF-295
TK-10 = tested on: TK-10
NCI-H522 = tested on: NCI-H522
K562 = tested on: K562
M19-MEL = tested on: M19-MEL
786-0 = tested on: 786-0
MCF7 = tested on: MCF7
Hs-578T = tested on: Hs-578T
MDA-N = tested on: MDA-N
DU-145 = tested on: DU-145
NCI/ADR-RES = tested on: NCI/ADR-RES

SMILES	GI50 (UACC-257)	GI50 (HCT-15)	GI50 (SF-268)	GI50 (SNB-19)	GI50 (HOP-62)	GI50 (RXF 393)	GI50 (RPMI-8226)	GI50 (HCC 2998)	GI50 (OVCAR-8)	GI50 (SF-295)	GI50 (TK-10)	GI50 (NCI-H522)	GI50 (K562)	GI50 (M19-MEL)	GI50 (786-0)	GI50 (MCF7)	GI50 (Hs-578T)	GI50 (MDA-N)	GI50 (DU-145)	GI50 (NCI/ADR-RES)
N=c1oc2c(O)c(O)ccc2cc1C(N)=O	32.1 µM (inactive)	> 100 µM	96.4 µM (inactive)	> 100 µM (inactive)	> 100 µM (inactive)	50.2 µM (inactive)	32.1 µM (inactive)	> 100 µM (inactive)	24.5 µM (inactive)	33.6 µM (inactive)	> 100 µM (inactive)	58.6 µM (inactive)	17.7 µM (inactive)	21.3 µM (inactive)	12 µM (inactive)	–	–	–	–	–
Cc1ccc(NC(=O)CCc2nnc(N)o2)cc1	> 100 µM (inactive)	> 100 µM	> 100 µM (inactive)	> 100 µM (inactive)	> 100 µM (inactive)	> 100 µM (inactive)	> 100 µM (inactive)	> 100 µM (inactive)	> 100 µM (inactive)	> 100 µM (inactive)	> 100 µM (inactive)	> 100 µM (inactive)	> 75.7 µM (inactive)	> 100 µM (inactive)	> 100 µM (inactive)	–	–	–	–	–
CN1C(=O)c2cccc3c([N+](=O)[O-])ccc(c23)C1=O	9.53 µM (inactive)	2.84 µM	9.68 µM (inactive)	14.2 µM (inactive)	12.1 µM (inactive)	3.1 µM (inactive)	–	6 µM (inactive)	6.01 µM (inactive)	14.5 µM (inactive)	3.86 µM (inactive)	1.36 µM (inactive)	4.1 µM (inactive)	10.4 µM (inactive)	8.85 µM (inactive)	–	–	–	–	–
O=C(O)/C=C/n1c2ccccc2c(=O)c2ccccc21	> 100 µM (inactive)	> 100 µM	> 100 µM (inactive)	> 100 µM (inactive)	> 100 µM (inactive)	> 100 µM (inactive)	> 100 µM (inactive)	> 100 µM (inactive)	> 100 µM (inactive)	> 100 µM (inactive)	–	> 100 µM (inactive)	> 100 µM (inactive)	> 100 µM (inactive)	> 100 µM (inactive)	–	–	–	–	–
Nc1ccc(C2=Nc3ccccc3SC(c3ccccc3O)C2)cc1 (centres undefined)	51.9 µM (inactive)	27.3 µM	33.7 µM (inactive)	43.1 µM (inactive)	64 µM (inactive)	24.9 µM (inactive)	17.5 µM (inactive)	32.1 µM (inactive)	42.1 µM (inactive)	38 µM (inactive)	> 100 µM (inactive)	21.3 µM (inactive)	15.3 µM (inactive)	50 µM (inactive)	28.8 µM (inactive)	–	–	–	–	–
NC(CCC(=O)NC(CSC(=O)N(O)c1ccccc1)C(=O)NCC(=O)O)C(=O)O (centres undefined)	> 1000 µM (inactive)	> 1000 µM	> 1000 µM (inactive)	> 1000 µM (inactive)	> 1000 µM (inactive)	> 1000 µM (inactive)	–	> 1000 µM (inactive)	> 1000 µM (inactive)	> 1000 µM (inactive)	> 1000 µM (inactive)	> 1000 µM (inactive)	> 1000 µM (inactive)	> 1000 µM (inactive)	> 1000 µM (inactive)	–	–	–	–	–
COc1ccc(/C(Cl)=C(\C=O)c2ccc(Br)cc2)cc1OC	> 100 µM (inactive)	25.1 µM	23.2 µM (inactive)	26.3 µM (inactive)	34.8 µM (inactive)	20.7 µM (inactive)	3.69 µM (inactive)	> 100 µM (inactive)	31.9 µM (inactive)	19.8 µM (inactive)	> 92.3 µM (inactive)	51.8 µM (inactive)	> 61 µM (inactive)	> 100 µM (inactive)	27.7 µM (inactive)	–	–	–	–	–
CCOc1ccc2nc(NC(=O)C(=O)C(C#N)CC(C)(C)C=O)sc2c1 (centres undefined)	> 100 µM (inactive)	43.9 µM	> 100 µM (inactive)	> 100 µM (inactive)	> 100 µM (inactive)	> 100 µM (inactive)	75.3 µM (inactive)	> 100 µM (inactive)	> 100 µM (inactive)	> 100 µM (inactive)	> 100 µM (inactive)	49.9 µM (inactive)	52.7 µM (inactive)	61.2 µM (inactive)	> 100 µM (inactive)	–	–	–	–	–
O=S1(=O)CS(=O)(=O)OCCCCCO1	> 100 µM (inactive)	> 100 µM	> 100 µM (inactive)	> 100 µM (inactive)	–	> 100 µM (inactive)	> 100 µM (inactive)	> 100 µM (inactive)	> 100 µM (inactive)	–	> 100 µM (inactive)	> 100 µM (inactive)	> 100 µM (inactive)	> 100 µM (inactive)	> 100 µM (inactive)	–	–	–	–	–
C[N+]1(C)C/C(=C\c2ccc(O)cc2)C(=O)/C(=C/c2ccc(O)cc2)C1	> 100 µM (inactive)	60.1 µM	55.7 µM (inactive)	> 100 µM (inactive)	> 100 µM (inactive)	> 100 µM (inactive)	44.7 µM (inactive)	> 100 µM (inactive)	48.2 µM (inactive)	63.2 µM (inactive)	18 µM (inactive)	> 100 µM (inactive)	–	> 100 µM (inactive)	> 100 µM (inactive)	–	–	–	–	–
C=C(CN(C)C)C(=O)c1ccc(C)cc1C	9.51 µM (inactive)	4.52 µM	15.3 µM (inactive)	32.7 µM (inactive)	32.2 µM (inactive)	4.51 µM (inactive)	1.16 µM (inactive)	17.1 µM (inactive)	12.9 µM (inactive)	16.3 µM (inactive)	8.73 µM (inactive)	2.9 µM (inactive)	1.15 µM (inactive)	18.7 µM (inactive)	5.19 µM (inactive)	3.3 µM (inactive)	26.1 µM (inactive)	4.55 µM (inactive)	17.6 µM (inactive)	7 µM (inactive)
FC(F)(F)c1ccc2nc(NCc3ccccc3)c(-c3ccccc3)nc2c1	28.1 µM (inactive)	25.6 µM	48.1 µM (inactive)	46.2 µM (inactive)	52.1 µM (inactive)	20.4 µM (inactive)	36.4 µM (inactive)	29.9 µM (inactive)	86.3 µM (inactive)	36 µM (inactive)	29.6 µM (inactive)	–	–	32.1 µM (inactive)	20.3 µM (inactive)	–	–	–	–	–
CCOC(=O)[C@H]1Nc2ccc(Cl)cc2[C@H]2CCC[C@@H]12	22 µM (inactive)	> 100 µM	> 100 µM (inactive)	> 100 µM (inactive)	> 100 µM (inactive)	17.9 µM (inactive)	> 100 µM (inactive)	> 100 µM (inactive)	> 100 µM (inactive)	55.3 µM (inactive)	> 100 µM (inactive)	31.5 µM (inactive)	> 100 µM (inactive)	> 100 µM (inactive)	> 100 µM (inactive)	–	–	–	–	–
Cc1cc(C)nc(NS(=O)(=O)c2ccc(Nc3c4ccccc4nc4c(C(=O)N5CCN(CCO)CC5)cccc34)cc2)n1	> 100 µM (inactive)	> 100 µM	> 100 µM (inactive)	> 100 µM (inactive)	> 100 µM (inactive)	> 100 µM (inactive)	–	> 100 µM (inactive)	> 100 µM (inactive)	> 100 µM (inactive)	> 100 µM (inactive)	–	> 100 µM (inactive)	> 100 µM (inactive)	> 100 µM (inactive)	–	–	–	–	–
C[C@H]1[C@H](C)CC[C@]2(C(=O)O)CCC3(COC(=O)/C=C/c4ccc(O)cc4)C(=CCC4[C@@]5(C)CC[C@H](O)C(C)(C)C5CC[C@]43C)[C@H]12 (some centres undefined)	14.7 µM (inactive)	4.62 µM	4.67 µM (inactive)	5.11 µM (inactive)	7.82 µM (inactive)	10.9 µM (inactive)	5.05 µM (inactive)	5.45 µM (inactive)	4.51 µM (inactive)	3.72 µM (inactive)	10.5 µM (inactive)	3.78 µM (inactive)	2.86 µM (inactive)	22.3 µM (inactive)	5.16 µM (inactive)	–	–	–	–	–
C/C(=N\NC(=S)N1CCCCCC1)c1ccccn1	0.0128 µM (active)	–	0.405 µM (active)	0.0521 µM (active)	0.075 µM (active)	0.553 µM (active)	0.00405 µM (active)	0.158 µM (active)	0.00383 µM (active)	< 0.0187 µM (active)	0.573 µM (active)	0.0624 µM (active)	0.00288 µM (active)	0.0883 µM (active)	0.0352 µM (active)	0.0022 µM (active)	0.322 µM (active)	0.42 µM (active)	0.986 µM (active)	0.01 µM (active)
